According to patent US6262023A, “WD-40 derived peptides and uses thereof” (The Board of Trustees of the Leland Stanford Junior …, priority 1995, dated 2001):

What was measured:
[1] = test system: PKC binding to RACK1; experiment: Overlay / overlay-extraction assay: inhibition of PKC binding to recombinant RACK1 by peptides; parameters: species or system rat; details: 10 μM peptide preincubated with PKC isozyme mixture; compared with binding in the absence of added peptide; n=3
Method: Purified recombinant RACK1 protein (100-250 μg per lane, produced as detailed in Example 2) was subjected to SDS/PAGE and blotted onto nitrocellulose membranes (Ausubel). The nitrocellulose membranes were cut into strips, which were incubated for 0.5 hr in overlay buffer (Example 1) in the presence or absence of a mixture of PKC isozymes (α, β, γ, ε and .zeta., ~10 nM each final concentration) and PKC activators (60 μg/ml phosphatidylserine (PS), 2 μg/ml diacylglycerol (DG), and 1 mM CaCl2). Unbound material was removed by five washes, 5-min each, in overlay wash buffer. Where indicated, PKC activators were present during the incubation of PKC with the nitrocellulose strips. The conditions for each sample and corresponding results are presented in part D below.
The variation in the overlay protocol consisted of incubating the putative binding peptides with a mixture of PKC isozymes for 15 minutes at room temperature before the mixture was used to contact the nitrocellulose strips containing immobilized RACK1.
Nitrocellulose strips containing immobilized RACK1, that had been contacted with a solution containing a mixture of PKC isozymes, were washed and the area corresponding to the 36 kDa (RACK1-containing) band was cut out. The pieces (containing PKC/RACK1 complexes) were incubated with sample buffer for 10 minutes at 80° C. The sample buffer and the nitrocellulose pieces were then placed in wells in the PAGE gel and subjected to SDS-PAGE to elute the bound proteins. The gel was blotted onto nitrocellulose and a Western blot analysis was carried out using the mixture of antibodies (specific for PKC α, β, γ, δ, ε and .zeta. isozymes) described in Example 1 part B. Bound antibodies were detected by ^125 I-protein A.
Peptides derived from or homologous to WD-40 repeats of RACK1 were tested for their ability to inhibit PKC binding to recombinant RACK1. Binding of PKC to RACK1 was carried out using a variation of the overlay procedure described in Example 3 part B. In the experimental samples, peptides were incubated with a solution containing a mixture of rat brain PKC isozymes (~10 nM each) for 15 minutes at room temperature.
Following completion of the modified overlay protocol, the samples were subjected to the overlay-extraction protocol detailed in part B, above.

[2] = target: βPKC (Rattus norvegicus, UniProt P68403); experiment: PKC overlay of immobilized peptides (slot-blot); assay type: binding; parameters: All the solutions contained 5 nM rat brain PKC in peptide overlay buffer; from tissue; host or cells: rat brain; details: DG and calcium
Method: The binding of βPKC to peptide I (SEQ ID NO:1), peptide rVI (SEQ ID NO:7) and control peptide (SEQ ID NO:9) was assessed using a PKC overlay assay similar to that described in Example 3. Increasing amounts of peptides (0.5 μmole, 1.0 μmole, 5.0 μmole and 10.0 μmole) suspended in 20 mM NaCl were applied individually onto nitrocellulose using a slot-blot apparatus (Schleicher and Schuell, Keene, N.H.). The nitrocellulose membrane was washed three times, minutes per wash, in peptide overlay buffer and incubated for two hours in peptide overlay block buffer. The membrane was cut into sections and the sections were transferred to different PKC-containing solutions and incubated for 30 minutes at room temperature. All the solutions contained 5 nM rat brain PKC in peptide overlay buffer. Some solutions additionally contained PS, DG, and calcium. The membranes were then washed three times, 15 minutes per wash, in peptide overlay buffer and incubated in peptide overlay block buffer containing anti-βPKC monoclonal antibodies (1:1000 dilution; Seikagaku Kogyo, Tokyo, Japan). […]
Binding of PKC was determined using chemiluminescence as described in Example 3, part C. Quantitation of PKC binding was carried out using a "MICRO SCAN" 1000 gel analyzer (Galai Inc., Yokneam, Israel).

[3] = test system: PKC; experiment: PKC autophosphorylation; assay type: biochemical, rat; details: 10 μM peptide; no PS, DG, calcium
Method: Rat brain PKC (~10 nM) was incubated with mild agitation in a final volume of 250 μl of overlay buffer, as in Example 1 either with anti-βPKC pseudosubstrate antibodies (1:10 dilution, Life Technologies, Gaithersburg, Md.) or with the indicated peptide (10 μM). Where indicated, PS (50 μg/ml), DG (0.8 μg/ml) and CaCl2 (1 mM) were also added. The amount of autophosphorylation was determined after 2 hours for the reaction with the anti-pseudosubstrate antibodies, or after 15 minutes for the other samples. 50 μl of a buffer comprised of 20 mM Tris-HCl (pH 7.5), 20 mM MgCl2, 20 μM ATP and 5 μci/ml [γ-^32 P]ATP. The mixture was incubated for 15 minutes at room temperature and the reaction was stopped by adding 60 μl sample buffer (see Example 9). The samples were then boiled for 10 minutes, loaded onto a 10% SDS-PAGE mini gel and electrophoresed. The gel was fixed with 50% methanol and 10% acetic acid for 1 hour, and the autophosphorylation of PKC was determined by autoradiography.

[4] = test system: PKC-mediated germinal vesicle breakdown (GVBD) in Xenopus oocytes; experiment: PKC-mediated Xenopus oocyte maturation (germinal vesicle breakdown, GVBD) after peptide microinjection; assay type: cell-based
Method: Exposure to insulin induces maturation in Xenopus oocytes via a PKC-dependent pathway (Smith, et al., 1992). The maturation response may be quantified by monitoring the appearance of a white spot in the animal hemisphere of the oocyte, indicating germinal vesicle breakdown (GVBD) and maturation. To assess the effects of RACK1 WD-40-derived peptides on insulin-induced PKC-mediated maturation, 50 nl of a 20 mM NaCl solution containing the indicated peptides [peptide I (SEQ ID NO:1; .circle-solid.), peptide rVI (SEQ ID NO:7; .box-solid.), or injection solution (.quadrature.)] […] One hour following the peptide injections, the oocytes were exposed to a solution containing insulin (8.25 μg/ml) for 2 minutes (t=0). 10-15 oocytes were used for each sample.
The data, representative of three independent experiments, are expressed as the percent of oocytes with GVBD following insulin exposure and are plotted as a function of time in FIG. 5.

Chain of βPKC (P68403 whole entry): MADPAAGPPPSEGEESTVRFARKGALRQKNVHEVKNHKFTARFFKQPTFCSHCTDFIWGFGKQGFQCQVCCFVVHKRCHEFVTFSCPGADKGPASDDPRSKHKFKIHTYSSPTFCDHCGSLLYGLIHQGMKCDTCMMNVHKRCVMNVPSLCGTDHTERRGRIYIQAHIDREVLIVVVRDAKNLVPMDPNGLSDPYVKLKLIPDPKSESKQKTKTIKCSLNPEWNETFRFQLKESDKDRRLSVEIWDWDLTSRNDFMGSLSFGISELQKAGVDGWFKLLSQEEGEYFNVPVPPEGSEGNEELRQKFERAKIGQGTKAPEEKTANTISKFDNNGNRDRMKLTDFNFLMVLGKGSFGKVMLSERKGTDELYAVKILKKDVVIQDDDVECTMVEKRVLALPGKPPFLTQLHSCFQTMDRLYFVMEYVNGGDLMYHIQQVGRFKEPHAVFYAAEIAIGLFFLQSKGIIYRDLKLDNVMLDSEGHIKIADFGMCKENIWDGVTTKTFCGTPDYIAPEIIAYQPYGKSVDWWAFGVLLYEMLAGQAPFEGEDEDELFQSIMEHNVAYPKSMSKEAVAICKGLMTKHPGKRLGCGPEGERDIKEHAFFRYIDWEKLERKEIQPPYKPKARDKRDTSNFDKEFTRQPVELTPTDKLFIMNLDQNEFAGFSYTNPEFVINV

## peptide I: 15-residue peptide homologous to a sequence in the sixth WD-40 repeat of RACK1; PKC antagonist (KGDYEKILVALCGGN)
[1]
  inhibition of PKC binding to recombinant RACK1: 81±6%
[2]; PKC with PS, 5 nM rat brain PKC, 0.5-10.0 μmole peptide on nitrocellulose
  peptide amount at which activated PKC bound to immobilized peptide (as low as): ≤ 5 µmol
[2]; PKC without PS
  binding of unactivated PKC to immobilized peptide: did not bind
[3]
  induction of PKC autophosphorylation in the absence of PKC activators: Neither peptide I nor control peptide induced PKC autophosphorylation
[4]; 50 nl of 50 μM peptide microinjected, insulin 8.25 μg/ml
  plateau of % GVBD following insulin exposure: 45-50 % GVBD
[4]; between 5 μm-500 μM
  dose dependence of effect on GVBD: dose-dependent
[4]; peptide microinjected, insulin
  fraction of oocytes exposed to insulin that reach maturation: 45-50%
